{"source": "patent US20230212305A1", "about": "“ANTI-ABCG2 ANTIBODIES AND USES THEREOF” (Kenjockety Biotechnology, Inc., priority 2020, published 2023)", "key": {"[1]": {"test_system": "293T_ABCG2_OX cells", "assay_type": "cell-based, human", "conditions": "cell killing by topotecan on 293T_ABCG2_OX cells; viability relative to IgG control", "protocol": "Cytotoxicity Assays. The effect of antibodies on topotecan cytotoxicity was evaluated on 293T_ABCG2_OX cells, 293T cells stably transfected to express ABCG2. Cells were plated in 0.05 mL of Assay Media (DMEM+10% FBS) at 5000 cells/well in white, flat bottom 96-well tissue culture plates. Topotecan was prepared at 2× final assay concentration by serial dilution from 200 uM in assay media containing test antibodies or control antibodies at 100 ug/mL (2× final concentration), or Fumitremorgin C, a small molecule ABCG2 inhibitor at 20 uM (2× final concentration). An equivalent volume (0.05 mL) of the topotecan/antibody mixture was added to the 293T_ABCG2_OX cells in 96-well plates. The plates were then incubated at 37° C., in 5% CO2. After 72-96 hr plates were equilibrated to room temperature and cell viability assessed using Promega® CellTiter-Glo® Luminescent Cell Viability Assay according to the manufacturer's recommended protocol. Luminescence was measured on a Molecular Devices® FlexStation® 3 Multi-Mode Microplate Reader and data analyzed using GraphPad Prism 8.0 software. Half maximal inhibitory concentration (1050) is the concentration of drug (topotecan or other chemotherapy cytotoxic agent) where the response (cell growth) is reduced by 50%."}, "[2]": {"test_system": "cynomolgus ABCG2", "sequence (as listed by the source)": "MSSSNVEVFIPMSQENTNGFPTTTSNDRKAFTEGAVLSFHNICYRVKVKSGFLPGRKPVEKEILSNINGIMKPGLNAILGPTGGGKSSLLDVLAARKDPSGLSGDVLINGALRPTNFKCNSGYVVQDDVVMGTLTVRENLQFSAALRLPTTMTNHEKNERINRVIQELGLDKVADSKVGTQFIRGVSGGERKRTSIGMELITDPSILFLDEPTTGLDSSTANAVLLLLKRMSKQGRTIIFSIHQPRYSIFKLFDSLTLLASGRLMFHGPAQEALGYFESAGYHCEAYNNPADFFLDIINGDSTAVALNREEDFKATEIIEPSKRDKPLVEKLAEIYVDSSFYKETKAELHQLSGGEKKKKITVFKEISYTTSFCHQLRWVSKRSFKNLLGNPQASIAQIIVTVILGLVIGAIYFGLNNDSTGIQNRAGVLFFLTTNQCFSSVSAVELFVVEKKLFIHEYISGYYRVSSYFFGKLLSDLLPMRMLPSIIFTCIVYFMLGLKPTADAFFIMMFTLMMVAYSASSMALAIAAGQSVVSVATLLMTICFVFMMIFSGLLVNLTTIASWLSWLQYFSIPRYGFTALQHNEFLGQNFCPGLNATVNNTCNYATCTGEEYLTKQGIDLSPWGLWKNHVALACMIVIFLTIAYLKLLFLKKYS", "assay": "Flow cytometry binding to 293T cells overexpressing cynomolgus ABCG2", "set-up": "key to Cynomolgus ABCG2 binding: binding=“+”; non-significant binding=“−”", "protocol": "(§1) Cell Binding Assays. Antibody binding to cells was evaluated by flow cytometry. 293T cells stably transfected to express human or cynomolgus ABCG2 (293T_ABCG2_OX) were washed once in flow cytometry buffer (PBS+2% FBS+0.02% sodium azide), resuspended at 2×10^6 cells/mL in flow cytometry buffer, and dispensed into 96-well microtiter plates at 0.1 mL/well. Recombinant antibodies were added to cells at 5 ug/mL for initial binding confirmation, or serially diluted from 100 ug/mL in flow cytometry buffer. After incubating cells on ice for 30 min, cells were washed twice with flow cytometry buffer. Bound antibody was detected with PE-labeled F(ab′)2 fragment goat anti-human IgG (Jackson ImmunoResearch) and evaluated on an Attune NxT flow cytometer. EC50 is calculated to be the concentration of antibody that gives half maximal response."}, "[3]": {"target": "T1, ABCG2 (Homo sapiens, UniProt Q9UNQ0)", "T1 construct": "expressed in transfected cells", "T1 sequence (Q9UNQ0 1-655)": "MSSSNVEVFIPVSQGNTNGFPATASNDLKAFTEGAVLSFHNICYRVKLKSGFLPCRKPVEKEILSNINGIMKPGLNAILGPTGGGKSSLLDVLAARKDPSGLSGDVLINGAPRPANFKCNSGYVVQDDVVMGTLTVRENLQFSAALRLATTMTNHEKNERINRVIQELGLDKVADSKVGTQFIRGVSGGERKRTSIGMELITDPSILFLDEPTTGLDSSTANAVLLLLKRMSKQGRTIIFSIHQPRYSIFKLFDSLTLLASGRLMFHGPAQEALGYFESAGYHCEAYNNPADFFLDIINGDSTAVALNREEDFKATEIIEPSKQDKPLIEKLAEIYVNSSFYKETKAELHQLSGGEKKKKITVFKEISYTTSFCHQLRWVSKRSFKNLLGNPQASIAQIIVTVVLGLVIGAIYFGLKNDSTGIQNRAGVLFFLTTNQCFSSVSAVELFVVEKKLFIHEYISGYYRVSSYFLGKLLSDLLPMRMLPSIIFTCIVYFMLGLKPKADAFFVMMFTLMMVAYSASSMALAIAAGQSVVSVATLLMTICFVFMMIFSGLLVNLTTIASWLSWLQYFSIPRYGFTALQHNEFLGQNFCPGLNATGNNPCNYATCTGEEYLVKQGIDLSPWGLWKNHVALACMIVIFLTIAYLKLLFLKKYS", "assay_type": "cell-based", "protocol": "293T_ABCG2_OX cells were washed several times and aliquoted into 96-well plates as 50 μl aliquots/well at a cell density of 2×10e6 cells per ml in phenol red-free DMEM. Cells were mixed with 50 μl antibodies or the small molecule inhibitors of ABCG2:-fumitremorgin C (FTC), or its tetracyclic analogue K0143, with a final concentration of 1 μM. Cells were then incubated in the presence of 2.5 μM Mitoxantrone 1 h at 37° C. The cells were subsequently washed twice and finally resuspended in […] PBS. Mitoxantrone fluorescence was measured using excitation at 635 nm and emission at 647 nm. Protocols was measuring efflux blockade are found in Szabo E, et al., PLoS One. 2018 Jan. 17; 13(1):e0190629; Deeken J F, et al., Mol Pharmacol. 2009 November; 76(5):946-56)."}, "[4]": {"target": "T1, ABCG2", "assay": "Flow cytometry binding to 293T cells overexpressing human ABCG2 (293T_ABCG2_OX)", "set-up": "key to Binding by FACS: binding=“+”; non-significant binding=“−”", "protocol": "as §1"}}}
{"substance": "5D3: anti-Human ABCG2 Antibody (Clone 5D3) from R&D Systems [Antibody 5D3, reference compound]", "values": [{"measurement": "Killing", "setting": "[1]", "result": "++ (viability ≥10% and <30% of IgG control)"}, {"measurement": "Cynomolgus ABCG2 binding", "setting": "[2]", "result": "+"}, {"measurement": "binding to cynomolgus ABCG2 (cG2) expressed by 3T3 cells", "setting": "[2]; FIG. 1B, 3T3 cells stably transfected with cABCG2", "result": "binds"}, {"measurement": "Block Efflux", "setting": "[3]", "result": "+"}, {"measurement": "Binding by FACS", "setting": "[4]; 293T_ABCG2_OX cells", "result": "+"}, {"measurement": "binding to human ABCG2 expressed on 3T3 and C6 cell lines", "setting": "[4]; FIG. 1B, stably transfected cells", "result": "binds"}]}
